Assays:
[1] = Hydrolysis by rat plasma in vitro at 37 degrees C; format: in vitro ADME
[2] = system: 6 Hz psychomotor seizure model in mice; experiment: 6 Hz psychomotor seizure model in mice; format: in vivo, mouse; settings: 0.5 hours, SPHA
Excerpt: Adult male Carworth Farms (CF-1) mice (25-35 g) or young male Sprague-Dawley (SD) rats (100-150 g) were obtained from Charles River Laboratories Inc (Wilmington Mass. USA). CF1 mice were typically used for the 6 Hz psychomotor seizure model (6 Hz model described in the section below) but could also be used for the Maximal electroshock seizure (MES) model if performed in mice (Maximal electroshock seizure model described in the section below). SD rats were typically used for MES model but could also be used for 6 Hz psychomotor model if performed in rats. Animals were allowed free access to food and water, except during testing periods. After delivery from supplier lab to the in vivo pharmacology testing lab, animals were allowed sufficient time to acclimate to housing conditions prior to testing. Animals were housed in plastic cages in rooms with controlled humidity, ventilation, and lighting (12 hours lights on and 12 hours darkness). The animals were housed and fed in a manner consistent with the recommendations in the “Guide for Care and Use of Laboratory Animals” (National Research Council), and in accordance with guidelines set by an Institutional Animal Care and Use Committee (IACUC). Animal experiments were conducted in a manner consistent with Animal Research: Reporting of In Vivo Experiments (ARRIVE) guidelines (UK) and were approved by an IACUC. Test compounds or respective vehicle (placebo) were administered using an optimal fluid volume-to-body fluid ratio. Solutions or suspensions of test compounds, reference compounds or vehicles were administered to mice or rats in a volume of 0.01 mL/g body weight (mice) or 0.004 mL/g body weight (rats) by subcutaneous (s.c.) injection, intraperitoneal (i.p.) injection or by oral gavage (p.o.) unless otherwise indicated. Reference drug Levetiracetam or vehicle was administered by intraperitoneal (i.p.) injection.
Mice are given a topical anesthetic on the cornea of each eye prior to placement of corneal electrodes. 6 Hz psychomotor seizures were induced in mice (usually 8 animals per group) using electrical stimulation via corneal electrodes (6 Hz, 0.2 millisecond rectangular pulse, 3 second duration at 22 mA using a Grass 48 stimulator instrument as described in Barton M E et al 2001. Epilepsy Res 47:217-227). Prior to placement of corneal electrodes for electrical stimulation 0.5% tetracaine in saline (Sigma) drops were applied to each eye. Seizures and behaviors that arise from the electrical stimulus in the 6 Hz model include a minor clonic seizure phase followed by stereotyped automatistic behaviors including stun, forelimb clonus, twitching of the vibrissae and Straub-tail. […] Animals not presenting any of these behaviors were considered “protected” from seizures. This serves as a screen for in vivo pharmacological activity of test articles or reference anti-epilepsy drugs and defines anti-seizure activity as shown in several publications [Barton M E et al. 2001. Epilepsy Res. 47:217-227; Barton M E et al. 2003 Epilepsy Res. 56:17-26; Brown W C et al. 1953. J Pharmacol Exp Ther 107:273-283. Metcalf C S et al. 2017a. Epilepsia 58:484-493.; Metcalf C S et al. 2017c. Epilepsia 58:239-246.
Unless otherwise indicated pretreatment times of mice or rats were typically 0.5 hours for respective vehicle, Compounds 1, 3, 4, 6 or other compounds administered by subcutaneous or intraperitoneal route (unless other times indicated). A pretreatment time of 1 hour was used for Compounds 3, 4, 6 or other compounds administered by oral route unless other times indicated. Test compounds or respective vehicles were tested in some cases at other pretreatment times as indicated. A median effective dose (ED50) and 95% confidence interval (CI) were calculated using a Prism (Graphpad software). […]

[3] = Rat behavior observations for signs of motor impairment by trained observer; format: in vivo; settings: 6 mg/kg subcutaneous, rats, 30 minute observation period
Procedure: Rat behavior pharmacology observations for signs of motor impairment by trained observer. Rats were monitored after dosing for any signs of impairment by Compound 1 administered as 6 mg/kg dose by subcutaneous route.

[4] = system: Maximal Electroshock Seizure (MES) model in rats; experiment: Maximal Electroshock Seizure (MES) model in rats; format: in vivo
Excerpt: Adult male Carworth Farms (CF-1) mice (25-35 g) or young male Sprague-Dawley (SD) rats (100-150 g) were obtained from Charles River Laboratories Inc (Wilmington Mass. USA). CF1 mice were typically used for the 6 Hz psychomotor seizure model (6 Hz model described in the section below) but could also be used for the Maximal electroshock seizure (MES) model if performed in mice (Maximal electroshock seizure model described in the section below). SD rats were typically used for MES model but could also be used for 6 Hz psychomotor model if performed in rats. Animals were allowed free access to food and water, except during testing periods. After delivery from supplier lab to the in vivo pharmacology testing lab, animals were allowed sufficient time to acclimate to housing conditions prior to testing. Animals were housed in plastic cages in rooms with controlled humidity, ventilation, and lighting (12 hours lights on and 12 hours darkness). The animals were housed and fed in a manner consistent with the recommendations in the “Guide for Care and Use of Laboratory Animals” (National Research Council), and in accordance with guidelines set by an Institutional Animal Care and Use Committee (IACUC). Animal experiments were conducted in a manner consistent with Animal Research: Reporting of In Vivo Experiments (ARRIVE) guidelines (UK) and were approved by an IACUC. […]

Row | hydrolysis to Compound 1 by rat plasma in vitro ([1]; incubated at 37 degrees C) | hydrolysis by rat plasma after esterase inhibitor pretreatment ([1]; plasma pretreated 37 degrees C 5 min with 10 micromolar methyl arachidonoyl fluoro phosphonate) | SMILES | 6 Hz Test Results (# mice protected from seizure/# mice tested) ([2]; 0.3 mg/kg s.c.) | 6 Hz Test Results (# mice protected from seizure/# mice tested) ([2]; 0.6 mg/kg s.c.) | 6 Hz Test Results (# mice protected from seizure/# mice tested) ([2]; 1 mg/kg s.c.) | 6 Hz Test Results (# mice protected from seizure/# mice tested) ([2]; 3 mg/kg s.c.) | 6 Hz Test Results (# mice protected from seizure/# mice tested) ([2]; 6 mg/kg s.c.) | 6 Hz Test Results (# mice protected from seizure/# mice tested) ([2]; 10 mg/kg s.c.) | signs of motor impairment / tolerability or neurological changes [3] | MES Test Results (# rats protected from seizure/# rats tested) ([4]; 6 mg/kg S.C., 0.5 hours before corneal stimulus, SPHA formulation) | tolerability of treatment in MES study ([4]; rats, single acute systemic administration)
1 | within minutes | blocked | O=C(O)[C@@H]1C[C@H]2CC(F)(CCc3nnn[nH]3)CC[C@H]2CN1 (stereo in doubt) [Compound 2, (3S,4aS,6R,8aR)-6-fluoro-6-[2-(1H-1,2,3,4-tetrazol-5-yl)ethyl]-decahydroisoquinoline-3-carboxylic acid] | – | – | – | – | – | – | – | – | –
2 | – | – | O=C(O)[C@@H]1C[C@H]2C[C@@](F)(CCc3nnn[nH]3)CC[C@H]2CN1 [Compound 1, (3S,4aS,6S,8aR)-6-fluoro-6-[2-(1H-1,2,3,4-tetrazol-5-yl)ethyl]-decahydroisoquinoline-3-carboxylic acid] | 1/8 | 3/8 | 3/8 | 5/8 | 7/8 | 8/8 | No tolerability or neurological changes were observed | 6/6 | well tolerated
